Here are results for five compounds from patent US6989397B1, “Iron chelators and uses thereof” (University of Queensland, priority 1999, dated 2006).

Several values for one entry are separate records, joined by “and”; a condition that tells them apart may be missing. Equal values may be shown once.

Common to all, as to type: cell-based, human
Assay [1] has as its system SK-N-MC neuroepithelioma cells. Nature of the assay: internalized 59Fe uptake from 59Fe-transferrin. As to conditions: for Internalised Iron Uptake (% Control) / 59Fe uptake from 59Fe-Tf, % of the control value (FIG. 2B): SK-N-MC, chelators 50 μM, DFO 100 μM; for Internalised Iron Uptake (% Control): 59Fe-transferrin 0.75 μM, 3 h at 37° C., mean±SD; for 59Fe uptake from 59Fe-Tf, % of the control value (FIG. 2B): 3 hrs at 37° C., FIG. 2B screening experiment. Here is the method: The effect of chelators on ^59Fe uptake from ^59Fe-Tf and ^59Fe release from prelabelled cells was studied using standard procedures reported previously (Richardson et al., 1994, J. Lab Clin. Med. 124 660-71). The amount of ^59Fe internalized by the cells was measured by incubation with the general protease pronase (1 mg/ml) for 30 min at 4° C. to remove membrane-bound ^59Fe and Tf (Richardson et al., 1990; Baker et al., 1998, Biochim. Biophys. Acta 1380 21-30). […] To determine the ability of the chelators to inhibit ^59Fe uptake from ^59Fe-Tf (0.75 μM). […] Table 2. The effect of DFO, 311, […], or PCBHH on internalized ^59Fe uptake from ^59Fe-transferrin by BE-2 neuroblastoma cells, SK-N-MC neuroepithelioma cells, and SK-Mel-28 melanoma cells. Cells were incubated with the chelators and ^59Fe-transferrin (0.75 μM) for 3 h at 37° C., washed, and incubated for 30 min at 4° C. with pronase (1 mg/ml) to separate the internalized from the membrane-bound ^59Fe. All chelators were screened at a concentration of 50 μM except for DFO which was examined at 100 μM. Results are mean±SD (three determinations) from a typical experiment.

The test system of assay [2] is SK-N-MC neuroepithelioma cells. Nature of the assay: 59Fe release from prelabelled cells (iron efflux). The note with it: DFO 100 μM; for % Cellular Iron Released: labelled 3 h with 59Fe-transferrin 0.75 μM, reincubated 3 h at 37° C., chelators 50 μM, Mean±SD; for release of cellular 59Fe (FIG. 2A): 3 hr labelling, 3 hr reincubation, ligands 50 μM, FIG. 2A screening experiment. Here is the method: (§1) The effect of chelators on ^59Fe uptake from ^59Fe-Tf and ^59Fe release from prelabelled cells was studied using standard procedures reported previously (Richardson et al., 1994, J. Lab Clin. Med. 124 660–71). The amount of ^59Fe internalized by the cells was measured by incubation with the general protease pronase (1 mg/ml) for 30 min at 4° C. to remove membrane-bound ^59Fe and Tf (Richardson et al., 1990; Baker et al., 1998, Biochim. Biophys. Acta 1380 21–30).
The efflux of ^59Fe from SK-N-MC cells was examined after a 3 hr labelling period with ^59Fe-Tf (0.75 μM) followed by a 3 hr reincubation in the presence and absence of DFO (100 μM) or the remainder of the ligands at 50 μM (FIG. 2A).
(§2) Table 1. The effect of DFO, 311, PCTH, PCBH, or PCBHH on ^59Fe release from BE-2 neuroblastoma cells, SK-N-MC neuroepithelioma cells, and SK-Mel-28 melanoma cells. Cells were labeled for 3 h at 37° C. with ^59Fe-transferrin (0.75 μM), washed, and then reincubated with the chelators for 3 h at 37° C. […] Results are Mean±SD of three determinations in a typical experiment.

The subject of a further assay is SK-Mel-28 melanoma cells. Nature of the assay: 59Fe release from prelabelled cells (iron efflux). As to conditions: labelled 3 h with 59Fe-transferrin 0.75 μM, reincubated 3 h at 37° C., chelators 50 μM, DFO 100 μM, Mean±SD. The procedure:
as §1, §2

The subject of the next assay is WAF1 mRNA. Briefly: Northern blot analysis of mRNA levels. The note with it: SK-N-MC cells, 20 h; chelators 25 μM, DFO 100 μM. The procedure: (§3) FIG. 6. The effect of the chelators on mRNA levels of GADD45, WAF1 and β-actin in SK-N-MC neuroepithelioma cells. Total RNA was extracted from cells after a 20 h incubation with medium alone (control) or medium containing ferric ammonium citrate (100 μg/mL), DFO (100 μM), or the other chelators (25 μM). The isolated RNA was then electrophoresed on a 1.2% agarose-formaldehyde gel, transferred to a hybridisation membrane, and probed under high stringency conditions.
(§4) Northern blot analysis was performed by isolating total RNA using the Total RNA isolation Reagent from Advanced Biotechnologies Ltd (Surrey, United Kingdom). The RNA (15 μg) was heat denatured at 90° C. for 2 mins in RNA-loading buffer and then loaded onto a 1.2% agarose-formaldehyde gel. After electrophoresis, RNA was transferred to a nylon membrane (GeneScreen, New England Nuclear, Boston, USA) in 10×SSC using the capillary blotting method. The RNA was then cross-linked to the membrane using a UV-crosslinker (UV Stratalinker 1800, Stragene Ltd., USA).
(§5) The membranes were hybridized with probes specific for human WAF1, GADD-45 and β-actin. The WAF1 probe consisted of a 1 kb fragment from pSXV(ATTC: Cat. No. 79928). The GADD45 probe consisted of a 760 bp fragment from human GADD45 cDNA cloned into pHu145B2 (kindly supplied by Dr. Albert Fornace, National Cancer Institute, NIH, Maryland). The β-actin probe consisted of a 1.4 kb fragment from human β-actin cDNA cloned into pBluescript SK-(ATTC: at. No 37997).
(§6) Hybridization of probes to the membranes and their subsequent washing were performed as described by Mahmoudi and Lin, 1989, Biotechniques 7, 331–2 using a Hybaid Shake and Stack Hybridization oven (Hybaid Ltd., Middlesex, UK). The membranes were then exposed to Kodak XAR Films at −70° C. with an intensifying screen. The probes were stripped from the nylon membrane by boiling in a solution containing 10 mM Tris-HCl (pH 7.0). 1 mM EDTA (pH 8.0) and 1% SDS for 15–30 mins as described by the membrane manufacturer. Densitometric data were collected with a Laser Densitometer and analyzed by Kodak Biomax Software (Kodak Ltd, USA).

The next assay concerns GADD45 mRNA. Briefly: Northern blot analysis of mRNA levels. As to conditions: SK-N-MC cells, 20 h; chelators 25 μM, DFO 100 μM. Here is the method: as §3, §4, §5, §6

In the case of `O=C(NN=Cc1ccccn1)c1cccs1` [PCTH, 2-pyridylcarboxaldehyde 2-thiophenecarboxyl hydrazone], the “Internalised Iron Uptake (% Control)” value in assay [1] is on record as 16 ± 1 % Control. The “% Cellular Iron Released” value came to 51 ± 5% in assay [2] and 57 ± 6% with SK-Mel-28 melanoma cells. Moreover, the “level of WAF1 mRNA (FIG. 6)” value with WAF1 mRNA is on record as “did not have any effect”. Further, the “level of GADD45 mRNA (FIG. 6)” value with GADD45 mRNA is reported as “did not have any effect”.
For the compound `O=C(NN=Cc1ccco1)c1ccncc1` [FIH, 2furoylcarboxaldehyde isonicotinoyl hydrazone], the “59Fe uptake from 59Fe-Tf, % of the control value (FIG. 2B)” value in assay [1] is reported as “no effect”. Also, in assay [2], the “release of cellular 59Fe (FIG. 2A)” value is recorded as “did not appreciably increase”.
As to `O=C(NN=Cc1ccccn1)c1ccccc1` [PCBH, 2-pyridylcarboxaldehyde benzoyl hydrazone], the “Internalised Iron Uptake (% Control)” value in assay [1] was 20 ± 2 % Control. Also, the “% Cellular Iron Released” value in assay [2] came to 47 ± 3%; in the assay on SK-Mel-28 melanoma cells, 54 ± 4%. Further, the “level of WAF1 mRNA (FIG. 6)” value in the assay with WAF1 mRNA is given as “did not have any effect”. Also, in the assay with GADD45 mRNA, the “level of GADD45 mRNA (FIG. 6)” value is recorded as “did not have any effect”.
Turning to `O=C(NN=Cc1c(O)ccc2ccccc12)c1ccncc1` [Chelator 311, 2-hydroxy-1-naphthylaldehyde isonicotinoyl hydrazone, reference compound], the “59Fe uptake from 59Fe-Tf, % of the control, range over all 3 cell lines” value in assay [1] (BE-2, SK-N-MC and SK-Mel-28 cell lines together, 3 hr, 50 μM, Table 2) was 8–10 % of the control. Also, in assay [1], the “Internalised Iron Uptake (% Control)” value amounted to 10 ± 4 % Control. For the same compound, the “% Cellular Iron Released” value is listed as 49 ± 1% in assay [2] and 70 ± 1% with SK-Mel-28 melanoma cells. In the assay on WAF1 mRNA, the “level of WAF1 mRNA (FIG. 6)” value was “increase”. The “level of GADD45 mRNA (FIG. 6)” value with GADD45 mRNA is “increase”.
In the case of `CC(=O)N(O)CCCCCNC(=O)CCC(=O)N(O)CCCCCNC(=O)CCC(=O)N(O)CCCCCN` [DFO, desferrioxamine, reference compound], in assay [1], the “Internalised Iron Uptake (% Control)” value was 100 % Control and 100 ± 6 % Control; the “59Fe uptake from 59Fe-Tf, % of the control value (FIG. 2B)” value was 91 % of the control. Moreover, in assay [2], the “release of cellular 59Fe (FIG. 2A)” value is listed as 19% and the “% Cellular Iron Released” value is 18 ± 3%. Besides, the “% Cellular Iron Released” value in the assay on SK-Mel-28 melanoma cells was found to be 27 ± 1%.
